Assay: Loss of asthma control (LOAC) events, 12-week ICS/LABA withdrawal study
Type: in vivo, human
Source text: The general construct of this 12-week Loss of Asthma Control (LOAC) study consisted of a 4-week standardized ICS/LABA background therapy stabilization phase, a 4or 5-week background therapy withdrawal phase and a 3- or 4-week no background therapy phase, followed by a 4-week post IMP treatment safety follow-up period at the beginning of which, pre-screening asthma controller medications are restarted. Participants had access to short-acting β-agonist (SABA) reliever medication at all times during the protocol.
The primary endpoint was the proportion of patients with LOAC. The key secondary endpoint for the study was change in pre-bronchodilator FEV1 from baseline at EOT.
The primary endpoint was proportion of participants with LOAC during the 12-week treatment period.
Note that if the number of participants in some regions was too low, these regions may have been pooled with other regions. This strategy also applied to all the rest of the analyses where region was one of the covariates.
To assess the consistency in treatment effects across different subgroup levels, subgroup analyses were to be performed for the primary efficacy endpoint with respect to age group, gender, region, and other factors.
Secondary endpoints included pre-bronchodilator FEV1 change from baseline at EOT, ACQ-5 score change from baseline, and AQLQ score change from baseline. Other secondary and exploratory endpoints are described in Table 2.

[1] = 400 mg BID cohort, Latin America, n = 25
[2] = 400 mg BID cohort, N = 32, mITT
[3] = 400 mg BID cohort, age <45 years, n = 12
[4] = 400 mg BID cohort, age ≥45 years, n = 20
[5] = 400 mg BID cohort, baseline BMI <25 kg/m^2, n = 8
[6] = 400 mg BID cohort, baseline BMI ≥25-<30 kg/m^2, n = 16
[7] = 400 mg BID cohort, baseline BMI ≥30 kg/m^2, n = 8
[8] = 400 mg BID cohort, baseline weight ≥60-<90 kg, n = 23
[9] = 400 mg BID cohort, female, n = 18
[10] = 400 mg BID cohort, male, n = 14
[11] = 400 mg BID, N=32, 12 weeks, mITT
[12] = 400 mg BID, 1 exacerbation within 2 years
[13] = 400 mg BID, 2 exacerbations within 2 years
[14] = 400 mg BID, >2 exacerbations within 2 years
[15] = 400 mg BID, FEV1 reversibility <12 %
[16] = 400 mg BID, FEV1 reversibility ≥12 %
[17] = 400 mg BID, age at onset <12 years
[18] = 400 mg BID, age at onset <18 years
[19] = 400 mg BID, age at onset ≥12-<18 years
[20] = 400 mg BID, age at onset ≥18-<40 years

## CC(C)(C=C(C#N)C(=O)N1CCC[C@@H](n2nc(-c3ccc(Oc4ccccc4)cc3F)c3c(N)ncnc32)C1)N1CCN(C2COC2)CC1 (mixture of isomers) [rilzabrutinib, (R)-2-[3-[4-amino-3-(2-fluoro-4-phenoxy-phenyl)pyrazolo[3,4-d]pyrimidin-1-yl]piperidine-1-carbonyl]-4-methyl-4-[4-(oxetan-3-yl)piperazin-1-yl]pent-2-enenitrile]
400 mg BID cohort, APAC, n = 2
  LOAC incidence, number of participants: 2
  LOAC incidence, percentage: (100)
400 mg BID cohort, Eastern Europe, n = 3
  LOAC incidence, number of participants: 1
400 mg BID cohort, Eastern Europe, 95% CI (0.023, 11.088)
  LOAC OR vs. placebo: 0.500
400 mg BID cohort, Eastern Europe, 95% CI (−0.891, 0.558)
  LOAC RD vs. placebo: −0.167
[1]
  LOAC incidence, number of participants: 9
  LOAC incidence, percentage: (36.0)
400 mg BID cohort, Latin America, 95% CI (0.230, 2.230)
  LOAC OR vs. placebo: 0.716
400 mg BID cohort, Latin America, 95% CI (−0.351, 0.191)
  LOAC RD vs. placebo: −0.080
[2]
  Intervention discontinuation due to lack of efficacy or an AE related to asthma worsening, number: 0
  Number of participants requiring hospitalization or emergency room visit: 0
  Number of participants with LOAC: No: 20
  Number of participants with LOAC: Yes: 12
  Number of participants with increase in ICS ≥4 times the last prescribed ICS dose (or ≥50% of the prescribed ICS dose at baseline if background therapy withdrawal completed): 1
  Number of participants with ≥6 additional reliever puffs of salbutamol/albuterol or levosalbutamol/levalbuterol in a 24 hour period (compared with baseline) on 2 consecutive days: 2
  Number of participants with ≥30% reduction from baseline in AM PEF on 2 consecutive days: 6
  Participants with LOAC not triggered by use of rescue medication, number: 6
  Participants with LOAC not triggered by use of rescue medication, percentage: (18.8)
  Participants with LOAC triggered by use of rescue medication, number: 6
  Participants with LOAC triggered by use of rescue medication, percentage: (18.8)
  Percentage of participants with LOAC: No: (62.5)
  Percentage of participants with LOAC: Yes: (37.5)
  Percentage of participants with increase in ICS ≥4 times the last prescribed ICS dose (or ≥50% of the prescribed ICS dose at baseline if background therapy withdrawal completed): (3.1)
  Percentage of participants with ≥6 additional reliever puffs of salbutamol/albuterol or levosalbutamol/levalbuterol in a 24 hour period (compared with baseline) on 2 consecutive days: (6.3)
  Percentage of participants with ≥30% reduction from baseline in AM PEF on 2 consecutive days: (18.8)
400 mg BID cohort, Western Countries, n = 2
  LOAC incidence, number of participants: 0
[3]
  LOAC incidence, number of participants: 6
  LOAC incidence, percentage: (50.0)
400 mg BID cohort, age <45 years, 95% CI (0.342, 18.129)
  LOAC OR vs. placebo: 2.489
400 mg BID cohort, age <45 years, 95% CI (−0.266, 0.634)
  LOAC RD vs. placebo: 0.184
[4]
  LOAC incidence, number of participants: 6
  LOAC incidence, percentage: (30.0)
400 mg BID cohort, age ≥45 years, 95% CI (0.069, 1.023)
  LOAC OR vs. placebo: 0.266
400 mg BID cohort, age ≥45 years, 95% CI (−0.583, −0.007)
  LOAC RD vs. placebo: −0.295
[5]
  LOAC incidence, number of participants: 3
  LOAC incidence, percentage: (37.5)
400 mg BID cohort, baseline BMI <25 kg/m^2, 95% CI (0.033, 2.763)
  LOAC OR vs. placebo: 0.300
400 mg BID cohort, baseline BMI <25 kg/m^2, 95% CI (−0.796, 0.213)
  LOAC RD vs. placebo: −0.292
[6]
  LOAC incidence, number of participants: 6
  LOAC incidence, percentage: (37.5)
400 mg BID cohort, baseline BMI ≥25-<30 kg/m^2, 95% CI (0.168, 2.709)
  LOAC OR vs. placebo: 0.675
400 mg BID cohort, baseline BMI ≥25-<30 kg/m^2, 95% CI (−0.431, 0.240)
  LOAC RD vs. placebo: −0.096
[7]
  LOAC incidence, number of participants: 3
  LOAC incidence, percentage: (37.5)
400 mg BID cohort, baseline BMI ≥30 kg/m^2, 95% CI (0.107, 5.238)
  LOAC OR vs. placebo: 0.750
400 mg BID cohort, baseline BMI ≥30 kg/m^2, 95% CI (−0.536, 0.397)
  LOAC RD vs. placebo: −0.069
400 mg BID cohort, baseline weight <60 kg, n = 3
  LOAC incidence, number of participants: 0
[8]
  LOAC incidence, number of participants: 10
  LOAC incidence, percentage: (43.5)
400 mg BID cohort, baseline weight ≥60-<90 kg, 95% CI (0.366, 3.640)
  LOAC OR vs. placebo: 1.154
400 mg BID cohort, baseline weight ≥60-<90 kg, 95% CI (−0.244, 0.314)
  LOAC RD vs. placebo: 0.035
400 mg BID cohort, baseline weight ≥90 kg, n = 6
  LOAC incidence, number of participants: 2
400 mg BID cohort, baseline weight ≥90 kg, 95% CI (0.013, 4.729)
  LOAC OR vs. placebo: 0.250
400 mg BID cohort, baseline weight ≥90 kg, 95% CI (−0.987, 0.320)
  LOAC RD vs. placebo: −0.333
[9]
  LOAC incidence, number of participants: 7
  LOAC incidence, percentage: (38.9)
400 mg BID cohort, female, 95% CI (0.076, 1.263)
  LOAC OR vs. placebo: 0.311
400 mg BID cohort, female, 95% CI (−0.560, 0.045)
  LOAC RD vs. placebo: −0.258
[10]
  LOAC incidence, number of participants: 5
  LOAC incidence, percentage: (35.7)
400 mg BID cohort, male, 95% CI (0.173, 24.590)
  LOAC OR vs. placebo: 2.062
400 mg BID cohort, male, 95% CI (−0.420, 0.931)
  LOAC RD vs. placebo: 0.256
[11]
  participants without LOAC, number: 20
  participants without LOAC, percent: (62.5)
400 mg BID, N=32, 12 weeks, mITT, placebo 16
  participants with LOAC, number: 12
400 mg BID, mITT
  RRR vs. placebo (%), LOAC: 24.4%
400 mg BID, mITT, 95% CI 0.433, 1.319
  RR vs. placebo, LOAC: 0.756
400 mg BID, mITT, 95% CI −0.361, 0.115
  RD (risk difference) vs. placebo, LOAC: −0.123
[12]
  OR vs. placebo: 1.218
  RD vs. Placebo: 0.059
[13]
  LOAC, number: 4
  OR vs. placebo: 0.471
  RD vs. Placebo: −0.199
[14]
  LOAC, number: 3
  OR vs. placebo: 0.508
[15]
  OR vs. placebo: 0.611
  RD vs. Placebo: −0.119
[16]
  LOAC, number: 6
  OR vs. placebo: 0.533
  RD vs. Placebo: −0.156
[17]
  LOAC, number: 4
  OR vs. placebo: 2.000
  RD vs. Placebo: 0.159
[18]
  OR vs. placebo: 1.402
  RD vs. Placebo: 0.126
[19]
  LOAC, number: 1
  OR vs. placebo: 0.250
  RD vs. Placebo: −0.300
[20]
  LOAC, number: 4
  OR vs. placebo: 0.267

Source: patent US20260345619A1 (Principia Biopharma Inc., priority 2023, published 2026)
